From PubChem BioAssay (NCI)
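48-hour exposure; five concentrations; linearly interpolated endpoints. TGI marks complete inhibition of growth.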 Where a SMILES comes first, the peptide text is derived from it. The star is where a group is joined. Bn = c1ccc(C*)cc1

How the values were obtained:
Assay in all cases: NCI tumour cell line growth inhibition, 48 h
SR leukemia = test system: SR leukemia
UACC-62 melanoma = test system: UACC-62 melanoma
786-0 renal = test system: 786-0 renal
T-47D breast = test system: T-47D breast
A549 NSCLC = test system: A549 NSCLC
OVCAR-4 ovarian = test system: OVCAR-4 ovarian
SK-OV-3 ovarian = test system: SK-OV-3 ovarian
A498 renal = test system: A498 renal
K-562 leukemia = test system: K-562 leukemia
OVCAR-3 ovarian = test system: OVCAR-3 ovarian

Row | Structure (SMILES) | TGI (SR leukemia) | TGI (UACC-62 melanoma) | TGI (786-0 renal) | TGI (T-47D breast) | TGI (A549 NSCLC) | TGI (OVCAR-4 ovarian) | TGI (SK-OV-3 ovarian) | TGI (A498 renal) | TGI (K-562 leukemia) | TGI (OVCAR-3 ovarian)
1 | O=C1CC(Sc2nc3ccc(I)cc3c(=O)n2Cc2ccccc2)C(=O)NN1 (configuration not stated) | 24 µM | 29.3 µM | 28.4 µM | 34.3 µM | 89.4 µM | 36.8 µM | 29.7 µM | 29.7 µM | 50.5 µM | 31.2 µM
2 | CCc1nc2cc3cccnc3c(Cl)c2[nH]c1=O | > 100 µM | > 100 µM | > 100 µM | > 100 µM | > 100 µM | > 100 µM | > 100 µM | > 100 µM | > 100 µM | > 100 µM
3 | Cc1cc2c(nn1)-c1ccccc1C2=O | > 10 µM | > 10 µM | > 10 µM | > 10 µM | > 10 µM | > 10 µM | > 10 µM | > 10 µM | > 10 µM | > 10 µM
4 | N#Cc1c(C#N)c(-c2ccccc2)n(-c2ccccc2)c1N | > 100 µM | > 100 µM | > 100 µM | 56.1 µM | > 100 µM | > 100 µM | > 100 µM | > 100 µM | > 100 µM | > 100 µM
5 | COc1ccc(N=Nc2c3c(c(O)c4ccccc24)CCC(C)(C)O3)cc1 | 39.1 µM | 28.6 µM | 73.8 µM | 25.2 µM | 39 µM | 50.4 µM | > 100 µM | 32 µM | > 100 µM | 33.2 µM
6 | CC(C)(C)C(=O)C(Cc1ccccc1)C(=O)C(C)(C)C | > 100 µM | – | > 100 µM | > 100 µM | > 100 µM | > 100 µM | > 100 µM | > 100 µM | > 100 µM | > 100 µM
7 | CC1=CC(=O)C(C(O)(C(F)(F)F)C(F)(F)F)C(C)(C)C1 (configuration not stated) | > 10 µM | > 10 µM | > 10 µM | > 10 µM | > 10 µM | > 10 µM | > 10 µM | > 10 µM | > 10 µM | > 10 µM
8 | CC(O)CC(O)(C(F)(F)F)C(F)(F)F (configuration not stated) | > 10 µM | > 10 µM | > 10 µM | > 10 µM | > 10 µM | > 10 µM | > 10 µM | > 10 µM | > 10 µM | > 10 µM
9 | Nc1nc(Nc2ccccc2)sc1C(=O)c1c[nH]c2ccccc12 | 5.12 µM | 28.9 µM | 18.2 µM | 33.3 µM | 23.7 µM | 23.5 µM | 32.8 µM | 30.6 µM | 56.7 µM | 26.6 µM
10 | COC(=O)C1(Cc2ccc3c(c2)CCC3)Cc2cc3c(cc2C1)CCC3 | > 100 µM | > 100 µM | > 100 µM | 60.7 µM | > 100 µM | 89.3 µM | > 100 µM | > 100 µM | > 100 µM | > 100 µM
11 | COC(=O)[C@H](Cc1ccccc1)NC(=O)c1ccc(CNC(=O)/C=C/c2cccc(Oc3ccccc3)c2)cc1 | > 100 µM | 24 µM | > 100 µM | > 100 µM | > 100 µM | > 100 µM | > 100 µM | 51.7 µM | > 100 µM | 40.4 µM
12 | C=C1C(=O)OC2/C=C(/C)C3(O)OC(C)(CC(OC(=O)C(C)C)C12)CC3OC(C)=O (configuration not stated) | > 31.5 µM | 31.6 µM | > 100 µM | > 100 µM | > 100 µM | > 65.5 µM | 26.1 µM | 15.5 µM | > 100 µM | 29.8 µM
13 | O=C1CS(=O)C23c4cc5ccccc5n4CCC2CCCN13 (configuration not stated) | > 100 µM | > 100 µM | > 100 µM | > 100 µM | > 100 µM | > 100 µM | > 100 µM | > 100 µM | > 100 µM | > 100 µM
14 | COC(=O)C(CC(C)C)NC(=O)C(N)Cc1ccc(OCc2ccccc2)cc1 (configuration not stated) (H-Tyr(Bn)-Leu-OMe; configuration not given here) | > 10 µM | > 10 µM | > 10 µM | > 10 µM | > 10 µM | > 10 µM | > 10 µM | > 10 µM | > 10 µM | > 10 µM
15 | O=C(O)c1c2c(cc3c1CC1(Cc4ccccc4C1=O)C3)CCC2 (configuration not stated) | 9.56 µM | > 100 µM | > 100 µM | > 90.7 µM | > 100 µM | > 100 µM | > 100 µM | 96 µM | 33.6 µM | > 100 µM
16 | COC(=O)c1cc2c(cc1CC(Cc1ccc3c(c1)CCC3)C(=O)OC)CCC2 (configuration not stated) | 57.4 µM | > 100 µM | > 100 µM | > 100 µM | > 100 µM | 81.8 µM | > 100 µM | > 100 µM | > 100 µM | > 100 µM
17 | COc1ccc(/C=N/N2C(=O)c3c(N)c(C#N)c(-c4ccccc4)c(-c4ccccc4)c3C2=O)cc1 | > 100 µM | > 100 µM | > 100 µM | > 100 µM | > 100 µM | > 100 µM | – | > 100 µM | > 100 µM | > 100 µM
18 | COc1cc2c(cc1OC)C13CC[N+]4(C)CC5=CCOC6CC(=O)N2C1C6C5CC34[O-] (configuration not stated) | > 100 µM | > 100 µM | > 100 µM | > 100 µM | > 100 µM | > 100 µM | > 100 µM | > 100 µM | > 100 µM | > 100 µM

Row | Structure (SMILES) | TGI (SR leukemia) | TGI (UACC-62 melanoma) | TGI (786-0 renal) | TGI (T-47D breast) | TGI (A549 NSCLC) | TGI (OVCAR-4 ovarian) | TGI (SK-OV-3 ovarian) | TGI (A498 renal) | TGI (K-562 leukemia) | TGI (OVCAR-3 ovarian)
19 | CCOC(CN(C)C(=S)Nc1cccc2ccccc12)OCC | > 10 µM | > 10 µM | > 10 µM | > 10 µM | > 10 µM | > 10 µM | > 10 µM | > 10 µM | > 10 µM | > 10 µM
20 | Cc1cc2nc(-c3cc(C(C)(C)C)c(O)c(C(C)(C)C)c3)[nH]c2cc1C | > 31.7 µM | 2.74 µM | 2.73 µM | > 100 µM | 26.3 µM | > 23.3 µM | > 100 µM | > 100 µM | > 43.1 µM | > 100 µM
21 | O=C(CCc1cccc(O)c1)NCCCNC(=O)CCc1cccc(O)c1 | > 100 µM | > 100 µM | > 100 µM | > 100 µM | > 100 µM | > 100 µM | > 100 µM | > 100 µM | > 100 µM | > 100 µM
22 | COC(=O)C1(Cc2ccc3c(c2)CCC3)Cc2ccccc2C1=O (configuration not stated) | > 100 µM | > 100 µM | > 100 µM | > 100 µM | > 100 µM | > 100 µM | 85.8 µM | 57.9 µM | 48.4 µM | > 100 µM
23 | O=C(O)c1ccc2c(c1)CC1(C2)Cc2cc3c(cc2C1=O)CCC3 (configuration not stated) | > 100 µM | > 100 µM | > 100 µM | > 100 µM | > 100 µM | > 100 µM | > 100 µM | > 100 µM | > 100 µM | > 100 µM
24 | COc1cc(OCc2ccc3nc(OC)c(OC)nc3c2)cc(OC)c1OC | > 10 µM | > 10 µM | > 10 µM | > 10 µM | > 10 µM | > 10 µM | > 10 µM | > 10 µM | > 10 µM | > 10 µM
25 | C=C(C)[C@@]1(O[Si](C)(C)C)CCCC[C@@H]1CC(Sc1ccccc1)Sc1ccccc1 | 31.5 µM | 26.9 µM | 28.6 µM | 18.8 µM | 23.1 µM | 26.2 µM | 39.7 µM | 34.5 µM | 41.2 µM | 27.7 µM
26 | O=C(O)CC(NC(=O)/C(=C/c1ccccc1O)NC(=O)c1ccccc1)C(=O)O (configuration not stated) | > 100 µM | > 100 µM | > 100 µM | > 100 µM | > 100 µM | > 100 µM | > 100 µM | > 100 µM | > 100 µM | > 100 µM
27 | O=C(CCCN1CCC2(CC1)C(=NC1CCCCC1)NC(=O)N2c1ccccc1)c1ccc(F)cc1 | 46.1 µM | 46.5 µM | 45 µM | 76.4 µM | > 100 µM | > 100 µM | – | 34.1 µM | > 100 µM | 31.6 µM
28 | CCOC(=O)C(C)c1nc2c(Cl)c3ncccc3cc2[nH]c1=O (configuration not stated) | 99.2 µM | > 100 µM | > 100 µM | > 100 µM | > 100 µM | > 100 µM | > 100 µM | > 100 µM | > 100 µM | > 100 µM
29 | COc1ccc(N=C2C(=S)N(c3ccc(OC)cc3)/C(=N/S(=O)(=O)c3ccccc3)N2c2ccccc2)cc1 | > 66.4 µM | 16.2 µM | 19.7 µM | 7.6 µM | > 73.1 µM | 22.4 µM | > 55.4 µM | > 100 µM | > 100 µM | 18.1 µM
30 | CC1C(c2ccc3c(c2)OCO3)c2cc3c(cc2OC1N1CCOCC1)OCO3 (configuration not stated) | > 80.2 µM | 69.5 µM | > 100 µM | > 100 µM | > 100 µM | > 100 µM | > 100 µM | 65.6 µM | 67.7 µM | > 93.8 µM
31 | N#CCCN(CCC#N)c1ccc(/C=C2\SC(=S)NC2=O)cc1Br | > 100 µM | > 100 µM | > 100 µM | > 100 µM | > 100 µM | > 100 µM | > 100 µM | > 100 µM | > 100 µM | > 100 µM
32 | Cn1ccnc1Sc1ccc(C=Nc2ccc3nc(SCC(=O)NC4CCCCC4)sc3c2)cc1[N+](=O)[O-] | > 100 µM | > 100 µM | 49 µM | > 100 µM | > 100 µM | > 100 µM | 58.4 µM | 48.2 µM | > 100 µM | > 100 µM
33 | OC1(c2ccc(Cl)cc2)c2ccc(CN3CCCC3)cc2C2=NCCN21 (configuration not stated) | 33.1 µM | 28.1 µM | 28.6 µM | 38.5 µM | 33.3 µM | 25.1 µM | 27.3 µM | 25.8 µM | 45.2 µM | 31.7 µM
34 | CC12CC1C(c1cccc([N+](=O)[O-])c1)(c1cccc([N+](=O)[O-])c1)N=N2 (configuration not stated) | 55.8 µM | 44.1 µM | 52.7 µM | > 100 µM | > 100 µM | 80.3 µM | > 100 µM | > 100 µM | > 100 µM | > 100 µM
35 | COc1ccc(N=NC(=Nc2ccc(F)cc2)c2ccc(N(CCC#N)CCC#N)cc2)cc1 | > 100 µM | 57.3 µM | > 100 µM | > 100 µM | 43.1 µM | > 100 µM | > 100 µM | 76.3 µM | > 100 µM | > 100 µM
